Data reported in patent US11020366B2, “Locomotor activity and increase in longevity of late infantile neuronal ceriod lipofuscinosis subjects by Gemfibrozil” (Rush University Medical Center, priority 2016, dated 2021).

How the values were obtained:
[1] = tested on: phospho-BAD (P-BAD); assay: Immunoblot of brain homogenates for phospho-BAD; format: in vivo, mouse; conditions: Cln2(−/−) mice, oral gem 7.5 mg/kg/day, 8 weeks
Description: (§1) Age- and sex-matched Cln2^(+/+) mice from the same background were used as wild type (WT) controls and Cln2^(−/−) animals were used in different treatment groups. Gem (7.5 mg/kg body wt/day) was dissolved in DMSO followed by dilution in 0.1% methyl cellulose (MeC). Cln2^(−/−) mice were either not fed (Un-untreated group), gavaged with 0.1% MeC (vehicle treated group) or gavaged with gem (gem-treated group) for 8 weeks for biochemical studies. Similar treatment regimen was followed as long as the animals are not considered to be morbid as described above for survival study. Here, 40 mice (20 male and 20 female) were used per group and animals (4 weeks old) were randomly selected for any group.
(§2) After 8 weeks of treatment, mice were sacrificed and cortex and striatum regions were isolated, homogenized in RIPA buffer (150 mM sodium chloride, 1.0% NP-40 or Triton X-100, 0.5% sodium deoxycholate, 0.1% SDS (sodium dodecyl sulphate), 50 mM Tris, pH 8.0), supernatant was taken and protein was estimated by BioRad protein assay. Equal amounts of protein from the tissue extract were separated in 12% or 15% Bis-Tris gels and proteins were transferred onto a nitrocellulose membrane (Bio-Rad) using the Thermo-Pierce Fast Semi-Dry Blotter (Corbett et al. 2015, Roy et al. 2015, Roy et al. 2016). […]

[2] = cited from earlier work
[3] = tested on: subunit c of mitochondrial ATP synthase (SCMAS); assay: Detection of storage materials by immunofluorescence of subunit c in motor cortex; format: in vivo, mouse; conditions: Cln2(−/−) mice, oral gem 7.5 mg/kg/day, 8 weeks
Description: as §1
(§3) After 8 weeks of treatment, mice were sacrificed and their brains fixed, embedded, and processed. […] The samples were mounted and observed under Olympus IX41 fluorescence microscope. […] After acquiring images under 20×objective lens, images were further analyzed as follows. […] Once the area of the image was measured, touch counting program was applied to count number of fluorescent signals using simple mouse click method. […]
It was performed by monitoring subunit c of mitochondrial ATP synthase (SCMAS) by immunofluorescence. […] SCMAS-associated fluorescence intensity was quantified by using the Olympus Microsuite V software. […]

[4] = tested on: NeuN-positive neurons; assay: Neuronal apoptosis, NeuN/TUNEL double-labeling of brain sections; format: in vivo, mouse; conditions: Cln2(−/−) mice, oral gem 7.5 mg/kg/day, 8 weeks
Description: Reagents for TUNEL assay on frozen brain sections were purchased from EMD Millipore (Billerica, Mass.) and experiments were performed according to manufacturer's protocol. Blocking buffer and secondary antibodies for immune blot (IB) (IRDye 700 or IRDye 800—labelled) were purchased from Licor (Lincoln, Nebr.). Secondary antibodies for immunohistochemistry (IHC) (FITC or Cy5—labeled) were purchased from Jackson ImmunoResearch (West Grove, Pa.).
Age- and sex-matched Cln2^(+/+) mice from the same background were used as wild type (WT) controls and Cln2^(−/−) animals were used in different treatment groups. Gem (7.5 mg/kg body wt/day) was dissolved in DMSO followed by dilution in 0.1% methyl cellulose (MeC). Cln2^(−/−) mice were either not fed (Un-untreated group), gavaged with 0.1% MeC (vehicle treated group) or gavaged with gem (gem-treated group) for 8 weeks for biochemical studies. […]
as §3

[5] = tested on: Cln2^(−/−) mice; assay: Survival study of Cln2(−/−) mice treated orally with gem; format: in vivo, mouse; conditions: gem 7.5 mg/kg body weight/day via gavage from 4 weeks of age
Excerpt: Animal maintaining and experiments were in accordance with National Institute of Health guidelines and were approved by the Institutional Animal Care and Use committee (IACUC) of the Rush University of Medical Center, Chicago, Ill. […] However, if any mouse came to the moribund stage, it was decapitated after anesthesia with ketamine/xylazine injectables. Conditions for moribund were as follows: central nervous system disturbance (head tilt, seizures, tremors, circling, spasticity, and paresis); inability to remain upright; evidence of muscle atrophy; chronic diarrhea or constipation; rough coat and distended abdomen; preading area of alopecia caused by disease; coughing, rales, wheezing and nasal discharge; distinct jaundice and/or paleness (anemia); markedly discolored urine, polyuria or anuria; frank bleeding from any orifice; persistent self-induced trauma. Cln2^(+/−) animals were kindly provided by Dr. Peter Lobel (Center for Advanced Biotechnology and Medicine, Robert Wood Johnson Medical School, Piscataway, N.J., USA). These animals were inbred and subsequent generations were screened by RTPCR to further obtain Cln2^(+/+), Cln2^(+/−) and Cln2^(−/−) strains. […]
All values are expressed as means±SEM. […]

[6] = tested on: SOCS3; assay: Double-label immunofluorescence of striatal sections for SOCS3 (GFAP, Iba1); format: in vivo, mouse; conditions: Cln2(−/−) mice, 8 weeks of oral gem, seen in astrocytes, microglia and other brain cells
Description: as §1
as §3, with “processed. Sections (30 μm) were made from different brain regions (motor cortex and striatum) using a Leica Cryostat and immunofluorescence staining on fresh frozen sections was performed as described (Corbett et al. 2015, Roy et al. 2015, Roy et al. 2016).” for “processed.”

[7] = tested on: SOCS3; assay: Western blot of motor cortex and striatum extracts for SOCS3; format: in vivo, mouse; conditions: Cln2(−/−) mice, 8 weeks of oral gem; both motor cortex and striatum
Description: as §1, §2

[8] = after oral administration; cited from earlier work
[9] = tested on: IL-1Ra; assay: Western blot of motor cortex and striatum extracts for IL-1Ra; format: in vivo, mouse; conditions: Cln2(−/−) mice, 8 weeks of oral gem; both motor cortex and striatum
Description: as §1, §2

[10] = tested on: IL-1Ra; assay: Double-label immunofluorescence of striatal sections for IL-1Ra (GFAP, Iba1); format: in vivo, mouse; conditions: Cln2(−/−) mice, 8 weeks of oral gem, in both astrocytes and microglia
Description: as §1
as §3, with “processed. Sections (30 μm) were made from different brain regions (motor cortex and striatum) using a Leica Cryostat and immunofluorescence staining on fresh frozen sections was performed as described (Corbett et al. 2015, Roy et al. 2015, Roy et al. 2016).” for “processed.”

[11] = tested on: Cln2^(−/−) mice; assay: Locomotor activity (Digiscan Monitor open field) in Cln2(−/−) mice; format: in vivo, mouse; conditions: oral gem 7.5 mg/kg/day, after 8 weeks of treatment
Description: as §1
Locomotor activities were measured in Cln2^(−/−) mice after 8 weeks of gem treatment using Digiscan Monitor (Omnitech Electronics, Inc., Columbus, Ohio) as described by us (Khasnavis & Pahan 2014, Ghosh et al. 2007, Ghosh et al. 2009). This Digiscan Monitor records basic locomotion parameters, such as horizontal activity, total distance traveled, movement time, rest time, etc. as well as stereotypy, behavior that is directly controlled by striatum. […] DIGISCAN software was used to analyze and store horizontal and vertical activity data, which were monitored automatically by infra-red beams. […]

[12] = tested on: astroglia or microglia; assay: Astroglia and microglia in brain sections (GFAP, Iba1 immunofluorescence); format: in vivo, mouse; conditions: Cln2(−/−) mice, after gem treatment; motor cortex and striatum
Description: as §1
as §3, with “processed. Sections (30 μm) were made from different brain regions (motor cortex and striatum) using a Leica Cryostat and immunofluorescence staining on fresh frozen sections was performed as described (Corbett et al. 2015, Roy et al. 2015, Roy et al. 2016).” for “processed.”

In the case of Cc1ccc(C)c(OCCCC(C)(C)C(=O)O)c1 [gem, 5-(2,5-dimethylphenoxy)-2,2-dimethylpentanoic acid], the “level of P-BAD in the motor cortex” value ([1]; motor cortex) is given as “upregulation of P-BAD”, the “level of P-BAD in the striatum” value ([1]; striatum) is given as “increased the level of P-BAD” and the tolerability ([2]; human and animal studies) is given as “well tolerated”. The toxicity ([2]; oral drug) was “fairly nontoxic”, the “SCMAS storage material in the motor cortex” value [3] was “significant decrease in SCMAS” and the “neuronal apoptosis (NeuN+TUNEL+ cells) in the motor cortex” value ([4]; motor cortex) was “strongly inhibited neuronal apoptosis”. The “neuronal apoptosis (NeuN+TUNEL+ cells) in the striatum” value ([4]; striatum) was “reduced neuronal apoptosis”, the “increase of the lifespan” value [5] was “more than 2 months” and the survived until ([5]; untreated all died within 137 days, vehicle within 150 days) was 204 days. The “SOCS3 in the striatum, immunofluorescence” value [6] was “marked increase in SOCS3”, the “SOCS3 level, Western blot” value [7] was “increase in SOCS3” and the “entry into the CNS” value [8] was “enters into the CNS”. For the same molecule, the “IL-1Ra level, Western blot” value [9] was “increase”, the “IL-1Ra in the striatum, immunofluorescence” value [10] was “restoration and/or upregulation of IL-1Ra” and the “locomotor activities (horizontal activity, movement time, number of movement, total distance, stereotypy counts, rest time)” value [11] was “significantly improved locomotor activities”. The “number of astroglia or microglia” value [12] was “did not observe any reduction in either astroglia or microglia”.
